One series addresses neurotensin receptors (Homo sapiens, UniProt P30989). The experiment in a line: Competitive binding assay on frozen tissue sections of receptor-positive human tumors vs radioiodinated native neurotensin. The conditions noted are these: for IC50: C-terminus modified derivatives. An excerpt:
Frozen tissue sections from receptor-positive human tumors were used in a competitive binding assay.

The nature of series [1]: In vitro urine stability assay (HPLC) of In-111 labeled peptide. The series is classed as in vitro ADME. The conditions noted are these: for % of compound present at 4 hours in urine / % of peptide at 4 hours after incubation at 37EC, Urine / HPLC Evaluation of Urine Stability at 37EC, Urine, t = 0: rat urine; for remaining at 4 h: rat, t = 4 h. Here is the method:
(§1) All reagents were purchased from Sigma unless otherwise noted. The peptide and ^111InCl3 in 0.05 N HCl were incubated in a sodium acetate/ascorbic acid buffer for 30 minutes at room temperature. The reaction was diluted with 5% ethanol/95% PBS before using in subsequent in vitro assays.
(§2) Human serum was purchased from Sigma (H 1388). The labeled peptide was incubated in either human serum or rat urine at 37EC for the specified amount of time. An aliquot was filtered through a 0.45 μm syringe filter prior to HPLC injection.

Series [2] can be described thus: In vitro serum stability assay (HPLC) of In-111 labeled peptide. The series is classed as in vitro ADME, human. The conditions noted are these: for remaining at 4 h: t = 4 h. Here is the method: as §1, §2
Where [3] appears, read: 37EC, read-out: HPLC Evaluation of Urine Stability at 37EC, Urine, t = 4 h.
[4] abbreviates: human serum, 37EC, read-out: HPLC Evaluation of Serum Stability at 37EC, Serum, t = 4 h.
Setting [5] is: Table 4, rat urine, read-out: Urine Stability, Urine (t = 4 h).
Where [6] appears, read: Table 4, human serum, read-out: Serum Stability, Serum (t = 4 h).

Where a SMILES comes first, the peptide text is derived from it. [ ]: non-standard residue; d: D form. The star is where a group is joined. ξ: configuration not given here. DTPA = O=C(O)CN(CCN(CC(=O)O)CC(=O)O)CCN(CC(=O)O)CC(=O)*; Phe(4-guanidino) = N=C(N)Nc1ccc(C[C@H](N)C(=O)O)cc1; ξGly(4-Pip(1-amidino)) = N=C(N)N1CCC(C(N)C(=O)O)CC1; ξPhe(4-guanidino) = N=C(N)Nc1ccc(CC(N)C(=O)O)cc1; X1 = CC(C)C[C@@H](CN[C@@H](CC(C)C)C(N)=O)N*; ξGly(piperidin-4-yl) = NC(C(=O)O)C1CCNCC1; Tle = CC(C)(C)[C@H](N)C(=O)O; Aba(Apy) = not defined here Bounds are passed on as bounds.

neurotensin receptors, sequence (P30989 whole entry): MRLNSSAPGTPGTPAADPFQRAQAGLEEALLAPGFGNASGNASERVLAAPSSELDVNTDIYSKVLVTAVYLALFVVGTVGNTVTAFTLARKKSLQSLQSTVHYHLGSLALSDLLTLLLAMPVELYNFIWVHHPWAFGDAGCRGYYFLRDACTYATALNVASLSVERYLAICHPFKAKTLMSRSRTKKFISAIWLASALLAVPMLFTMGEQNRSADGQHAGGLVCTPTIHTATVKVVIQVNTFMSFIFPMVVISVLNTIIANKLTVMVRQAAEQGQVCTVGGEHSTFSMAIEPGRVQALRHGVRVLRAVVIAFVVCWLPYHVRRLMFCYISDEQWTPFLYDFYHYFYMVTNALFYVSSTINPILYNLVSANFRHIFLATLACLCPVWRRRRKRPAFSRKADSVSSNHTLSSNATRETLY

Regarding `CC[C@H](C)[C@H](NC(=O)[C@H](Cc1ccc(O)cc1)NC(=O)[C@@H]1CCCN1C(=O)[C@H](CCCNC(=N)N)NC(=O)C(NC(=O)[C@@H]1CCCN1C(=O)[C@@H](CCCCN)NC(=O)CN(CCN(CCN(CC(=O)O)CC(=O)O)CC(=O)O)CC(=O)O)C1CCN(C(=N)N)CC1)C(=O)N[C@@H](CC(C)C)C(=O)O` (single isomer, unassigned) [Compound II, DTPA-DLys-Pro-Gly(PipAm)-Arg-Pro-Tyr-Ile-Leu-OH], the equilibrium dissociation constant (Kd) on neurotensin receptors (Table 1) was 2.7 nM. In series [1] (37EC), the “% of compound present at 4 hours in urine” value worked out at 16.6% and the “% of peptide at 4 hours after incubation at 37EC, Urine” value (from here on “% of peptide at 4 hours … Urine”) was determined as 16.6%. In series [2] (human serum, 37EC), the “% of compound present at 4 hours in serum” value was 19.5% and the “% of peptide at 4 hours after incubation at 37EC, Serum” value (shortened to “% of peptide at 4 hours … Serum”) amounted to 19.5%.
Consider `CC[C@H](C)[C@H](NC(=O)[C@H](Cc1ccc(O)cc1)NC(=O)[C@@H]1CCCN1C(=O)[C@H](CCCNC(=N)N)NC(=O)C(CCc1ccnc(N)n1)NC(=O)[C@@H]1CCCN1C(=O)[C@@H](CCCCN)NC(=O)CN(CCN(CCN(CC(=O)O)CC(=O)O)CC(=O)O)CC(=O)O)C(=O)N[C@@H](CC(C)C)C(=O)O` (single isomer, unassigned) [Compound III, DTPA-DLys-Pro-Aba(Apy)-Arg-Pro-Tyr-Ile-Leu-OH], for which binding at neurotensin receptors (Table 1) was characterised by a dissociation constant (Kd) of 68 nM. Further, in series [1] (37EC), the “% of compound present at 4 hours in urine” value is 6.0% and the “% of peptide at 4 hours … Urine” value was 6.0%. In addition, in series [2] (human serum, 37EC), the “% of compound present at 4 hours in serum” value came out at 4.3% and the “% of peptide at 4 hours … Serum” value amounted to 4.3%.
Take `CC(C)C[C@H](NC(=O)[C@@H](NC(=O)[C@H](Cc1ccc(O)cc1)NC(=O)[C@@H]1CCCN1C(=O)[C@H](CCCNC(=N)N)NC(=O)C(NC(=O)[C@@H]1CCCN1C(=O)[C@@H](CCCCN)NC(=O)CN(CCN(CCN(CC(=O)O)CC(=O)O)CC(=O)O)CC(=O)O)C1CCN(C(=N)N)CC1)C(C)(C)C)C(=O)O` (single isomer, unassigned) [Compound X, DTPA-DLys-Pro-Gly(PipAm)-Arg-Pro-Tyr-tBuGly-Leu-OH]: the IC50 at neurotensin receptors stood at 3.5 nM. This molecule also showed a Kd at neurotensin receptors (Table 3) of 3.5 nM. In addition, the “% of peptide at 4 hours … Urine” value in series [1] (37EC) came out at 63.0%. The “% of peptide at 4 hours … Serum” value in series [2] (human serum, 37EC) stood at 87.5%.
As for `CC[C@H](C)[C@H](NC(=O)[C@H](Cc1ccc(O)cc1)NC(=O)[C@@H]1CCCN1C(=O)C(Cc1ccc(NC(=N)N)cc1)NC(=O)[C@H](CCCNC(=N)N)NC(=O)[C@@H]1CCCN1C(=O)[C@@H](CCCCN)NC(=O)CN(CCN(CCN(CC(=O)O)CC(=O)O)CC(=O)O)CC(=O)O)C(=O)N[C@@H](CC(C)C)C(=O)O` (single isomer, unassigned) [DTPA-DLys-Pro-Arg-(4-Gu)Phe-Pro-Tyr-Ile-Leu-OH], the dissociation constant Kd at neurotensin receptors (Table 3) amounted to 83 nM. Besides, the “% of peptide at 4 hours … Urine” value in series [1] (37EC) is recorded as 0%. In series [2] (human serum, 37EC), the “% of peptide at 4 hours … Serum” value was found to be 16.3%.
Regarding `CC[C@H](C)[C@H](NC(=O)[C@H](Cc1ccc(O)cc1)NC(=O)[C@@H]1CCCN1C(=O)C(CCc1ccnc(N)n1)NC(=O)[C@H](CCCNC(=N)N)NC(=O)[C@@H]1CCCN1C(=O)[C@@H](CCCCN)NC(=O)CN(CCN(CCN(CC(=O)O)CC(=O)O)CC(=O)O)CC(=O)O)C(=O)N[C@@H](CC(C)C)C(=O)O` (single isomer, unassigned) [DTPA-DLys-Pro-Arg-Aba(Apy)-Pro-Tyr-Ile-Leu-OH], binding at neurotensin receptors (Table 3) was put at a Kd of 1200 nM. Further, the “% of peptide at 4 hours … Urine” value in series [1] (37EC) is given as 4.7%. Moreover, the “% of peptide at 4 hours … Serum” value in series [2] (human serum, 37EC) is 15.7%.
In turn, `CC[C@H](C)[C@H](NC(=O)[C@H](Cc1ccc(O)cc1)NC(=O)[C@@H]1CCCN1C(=O)[C@H](CCCNC(=N)N)NC(=O)C(Cc1ccc(NC(=N)N)cc1)NC(=O)[C@@H]1CCCN1C(=O)[C@@H](CCCCN)NC(=O)CN(CCN(CCN(CC(=O)O)CC(=O)O)CC(=O)O)CC(=O)O)C(=O)N[C@@H](CC(C)C)C(=O)O` (stereo partly drawn) [Compound I, DTPA-DLys-Pro-(4-Gu)Phe-Arg-Pro-Tyr-Ile-Leu-OH] showed a Kd on neurotensin receptors (Table 1) of 8.6 nM. In series [1] (37EC), the “% of compound present at 4 hours in urine” value worked out at 1.5% and the “% of peptide at 4 hours … Urine” value was 1.5%. Also, in series [2] (human serum, 37EC), the “% of compound present at 4 hours in serum” value is given as 14.1% and the “% of peptide at 4 hours … Serum” value was determined as 14.1%.
`CC(C)C[C@H](NC(=O)[C@@H](NC(=O)[C@H](Cc1ccc(O)cc1)NC(=O)[C@@H]1CCCN1C(=O)[C@H](CCCNC(=N)N)NC(=O)C(Cc1ccc(NC(=N)N)cc1)NC(=O)[C@@H]1CCCN1C(=O)[C@@H](CCCCN)NC(=O)CN(CCN(CCN(CC(=O)O)CC(=O)O)CC(=O)O)CC(=O)O)C(C)(C)C)C(=O)O` (stereo partly drawn) [Compound IX, DTPA-DLys-Pro-Phe(4-guanyl)-Arg-Pro-Tyr-tBuGly-Leu-OH] ({DTPA}-[dK]P[ξPhe(4-guanidino)]RPY[Tle]L-OH) showed an IC50 on neurotensin receptors of 12.5 nM. Also, binding at neurotensin receptors (Table 3) was characterised by a dissociation constant (Kd) of 12.5 nM. In series [1] (37EC), the “% of peptide at 4 hours … Urine” value amounted to 51.1%. Also, the “% of peptide at 4 hours … Serum” value in series [2] (human serum, 37EC) worked out at 72.0%.
Molecule `CC(C)C[C@H](NC(=O)[C@@H](NC(=O)[C@H](Cc1ccc(O)cc1)NC(=O)[C@@H]1CCCN1C(=O)[C@H](CCCNC(=N)N)NC(=O)C(NC(=O)[C@@H]1CCCN1C(=O)C(NC(=O)CN(CCN(CCN(CC(=O)O)CC(=O)O)CC(=O)O)CC(=O)O)C1CCNCC1)C1CCN(C(=N)N)CC1)C(C)(C)C)C(=O)O` (stereo partly drawn) [Compound XI, DTPA-PipGly-Pro-Gly(PipAm)-Arg-Pro-Tyr-tBuGly-Leu-OH] ({DTPA}-[ξGly(piperidin-4-yl)]P[ξGly(4-Pip(1-amidino))]RPY[Tle]L-OH) gave a dissociation constant Kd on neurotensin receptors (Table 3) of 3.9 nM. Also, the “% of peptide at 4 hours … Urine” value in series [1] (37EC) is on record as 93.6%. Besides, the “% of peptide at 4 hours … Serum” value in series [2] (human serum, 37EC) came out at 95.9%.
As to `CC[C@H](C)[C@H](NC(=O)[C@H](Cc1ccc(O)cc1)NC(=O)[C@@H]1CCCN1C(=O)[C@H](Cc1ccc(NC(=N)N)cc1)NC(=O)[C@H](Cc1ccc(NC(=N)N)cc1)NC(=O)[C@@H]1CCCN1C(=O)[C@@H](CCCCN)NC(=O)CN(CCN(CCN(CC(=O)O)CC(=O)O)CC(=O)O)CC(=O)O)C(=O)N[C@@H](CC(C)C)C(=O)O` [In-111-DTPA-DK-P-F(Gu)-F(Gu)-P-Y-I-L, metal not drawn] ({DTPA}-[dK]P[Phe(4-guanidino)][Phe(4-guanidino)]PYIL-OH; C-terminus assumed), the “HPLC Evaluation of Urine Stability at 37EC, Urine, t = 0” value in series [1] is on record as 92.3%. The remaining at 4 h stood at 2.3% in series [1] (setting [3]) and 25.2% in series [2] (setting [4]). In addition, in series [2] (human serum), the “HPLC Evaluation of Serum Stability at 37EC, Serum, t = 0” value worked out at 99.0%.
The like results for `CC[C@H](C)[C@H](NC(=O)[C@H](Cc1ccc(O)cc1)NC(=O)[C@@H]1CCCN1C(=O)[C@H](CCCN=C(N)N)NC(=O)[C@H](Cc1ccc(NC(=N)N)cc1)NC(=O)[C@@H]1CCCN1C(=O)[C@@H](CCCCN)NC(=O)CN(CCN(CCN(CC(=O)O)CC(=O)O)CC(=O)O)CC(=O)O)C(=O)N[C@@H](CC(C)C)C(=O)O` [In-111-DTPA-DK-P-F(Gu)-R-P-Y-I-L, metal not drawn] were, in that order, 94.1%, 1.5%, 14.1% and 98.7%.
For the molecule `CC(C)C[C@@H](CN[C@@H](CC(C)C)C(N)=O)NC(=O)[C@H](Cc1ccc(O)cc1)NC(=O)[C@@H]1CCCN1C(=O)[C@H](CCCNC(=N)N)NC(=O)[C@H](Cc1ccc(NC(=N)N)cc1)NC(=O)[C@@H]1CCCN1C(=O)[C@@H](CCCCN)NC(=O)CN(CCN(CCN(CC(=O)O)CC(=O)O)CC(=O)O)CC(=O)O` [In-111-DTPA-DK-P-F(Gu)-R-P-Y-L(Ψ-CH2NH)-L-NH2, metal not drawn] ({DTPA}-[dK]P[Phe(4-guanidino)]RPY-X1), the remaining at 4 h is 95.7% in series [1] (setting [5]) and 76.2% in series [2] (setting [6]).
As to `CC(C)C[C@H](NC(=O)[C@@H](NC(=O)[C@H](Cc1ccc(O)cc1)NC(=O)[C@@H]1CCCN1C(=O)[C@H](CCCN=C(N)N)NC(=O)[C@H](Cc1ccc(NC(=N)N)cc1)NC(=O)[C@@H]1CCCN1C(=O)[C@@H](CCCCN)NC(=O)CN(CCN(CCN(CC(=O)O)CC(=O)O)CC(=O)O)CC(=O)O)C(C)(C)C)C(=O)O` [In-111-DTPA-DK-P-F(Gu)-R-P-Y-tBuG-L, metal not drawn] ({DTPA}-[dK]P[Phe(4-guanidino)]RPY[Tle]L-OH), the results for the remaining at 4 h in series [1] (setting [5]) and in series [2] (setting [6]) were 51.1% and 72%, respectively.
Take `CC[C@H](C)[C@H](NC(=O)[C@H](Cc1ccc(O)cc1)NC(=O)[C@@H]1CCCN1C(=O)[C@H](CCCNC(=N)N)NC(=O)[C@H](CCCNC(=N)N)NC(=O)CN(CCN(CCN(CC(=O)O)CC(=O)O)CC(=O)O)CC(=O)O)C(=O)N[C@@H](CC(C)C)C(=O)O` [In-111-DTPA-R-R-P-Y-I-L, metal not drawn, reference compound]: the “HPLC Evaluation of Urine Stability at 37EC, Urine, t = 0” value in series [1] was 96.7%. For the same molecule, the results for the remaining at 4 h in series [1] (setting [3]), in series [1] (setting [5]) and in series [2] (setting [4]) were 13%, 14% and 1.6%, respectively. The “HPLC Evaluation of Serum Stability at 37EC, Serum, t = 0” value in series [2] (human serum) came to 92%.
Consider “DTPA-DLys-Pro-Aba(Apy)-Aba(Apy)-Pro-Tyr-Ile-Leu-OH ({DTPA-dK-Pro-Aba(Apy)-Aba(Apy)}-PYIL-OH; reading uncertain)”, for which the Kd with neurotensin receptors (Table 3) was > 10000 nM.

The values above are taken from patent US7015306B2 (BioSynthema, Inc., priority 1999, dated 2006).
